According to US9005670B2, “Use of histone acetyltransferase inhibitors as novel anti-cancer therapies” (The Johns Hopkins University, priority 2010, dated 2015):
“Also recorded” adds a separate entry of the source.

Experiments:
p300 HAT = molecular target: T1, p300 HAT (Homo sapiens, UniProt Q09472, DEL1529-1560/M1652G); assay: direct radioactive p300 HAT assay (14C-acetyl-CoA transfer to H4-15); type: biochemical
T1 construct: A variant of the HAT domain of p300 (residues 1287 to 1652) was expressed as a fusion; a C-terminal peptide corresponding to residues 1653-1666 of p300; made in house; host or cells: E. coli BL21(RIL)-DE3; C-terminal peptide by solid phase synthesis
T1 sequence (Q09472 with tags, fused parts or gaps DEL1529-1560/M1652G limits assumed): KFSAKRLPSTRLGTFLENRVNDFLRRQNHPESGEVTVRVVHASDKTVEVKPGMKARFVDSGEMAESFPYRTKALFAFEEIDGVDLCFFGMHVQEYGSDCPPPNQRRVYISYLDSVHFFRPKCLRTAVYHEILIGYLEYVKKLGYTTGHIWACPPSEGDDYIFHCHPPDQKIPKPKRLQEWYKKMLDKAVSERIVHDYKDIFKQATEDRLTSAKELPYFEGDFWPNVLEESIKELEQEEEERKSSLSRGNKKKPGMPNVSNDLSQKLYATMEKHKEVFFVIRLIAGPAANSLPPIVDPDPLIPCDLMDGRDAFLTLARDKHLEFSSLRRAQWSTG
Experimental: In this assay, production of ^14C-labeled Ac-H4-15 is monitored electrophoretically. Reactions were performed in 20 mM HEPES, pH 7.9, and contained 5 mM DTT, 80 μM EDTA, 40 μg/mL BSA, 100 μM H4-15, and 5 nM p300. […] Reactions were incubated at 30° C. for 10 minutes, initiated with addition of a 1:1 mixture of 12 C-acetyl-CoA and 14 C-acetyl-CoA to a final concentration of 20 μM, and allowed to run for 10 min at 30° C. Reactions are then quenched with addition of 14% SDS (w/v). Turnover was kept below 10%. All compounds were screened in duplicate. Samples were then loaded onto a 16% Tris-Tricine gel along with a BSA standard and run at 140 V for 90 minutes. Gels were washed and dried, and exposed in a PhosphorImager cassette for ˜2 days. Bands corresponding to Ac-H4-15 were then quantified using ImageQuant.
Reactions were performed in 20 mM HEPES, pH 7.9, and contained 5 mM DTT, 80 μM EDTA, 40 μg/mL BSA, 100 μM […], and 5 nM p300. Putative inhibitors were added over a range of concentrations, with DMSO concentration kept constant (<5%). Reactions were incubated at 30° C. for 10 minutes, then initiated with addition of a 1:1 mixture of ^12C-acetyl-CoA and ^14C-acetyl-CoA to 20 μM. After […] at 30° C., reactions were quenched with 14% SDS (w/v). All concentrations were screened in duplicate. Gels were run, washed, dried, and exposed to a PhosphorImager plate as described above, and production of Ac-H4-15 quantified. Data were fit to the following equation to obtain IC50s. […]

WM983A melanoma cells = assay: 3H-thymidine incorporation, WM983A; conditions: 20 μM, 24 hours
[1] = system: histone H3 and H4 acetylation in C3H 10T1/2 mouse fibroblasts; assay: histone acetylation Western blot in mouse cells; type: cell-based
Text: Histones in mammalian cells show characteristic rates of turnover of acetylation, with a majority showing slower rates and a very minor fraction showing very fast turnover. This latter fraction has been associated with gene activation, and is defined by rapid hyperacetylation in the presence of deacetylase inhibitors such as Trichostatin A (TSA). In addition to SDS gels (FIG. 9A), Acid-Urea gels (AU, FIG. 9B) were used, on which loss of a positive charge upon lysine acetylation retards migration, producing a ladder of bands corresponding to integral changes in acetylation.
C3H 10T1/2 mouse fibroblasts were grown in DMEM with 10% FCS at 37° C. with 5% CO2. Confluent cultures were rendered quiescent in DMEM with 0.5% FCS for 18-20 h prior to treatment. […] Antibodies were used at the following concentrations: total H3 (1:10000; ab7834; Abcam); H4K12ac (1:2500; 06-761; Upstate). Rabbit anti-H3K9ac (1:10000) antibodies were generated in-house. Histones were isolated from cells by acid extraction, separated by SDS and acid-urea polyacrylamide gel electrophoresis and analyzed by Western blotting.

Mel-1 melanoma cells = assay: combination with chemotherapy, total cell number; type: cell-based; conditions: 48 hours
Experimental: The cells were grown for 24 hours in medium. The cells were given fresh medium and either 1 μM of cisplatin or 200 μM of temozolamide was added. Total cell number was counted on Day 0, at 24 hours, and 48 hours after addition of cisplatin or temozolamide.
After 24 hours, the treated and mock-treated cells were given fresh medium, and the cells were treated with cisplatin or temozolamide for 48 hours.

[2] = cells pre-treated with 2 μM C646 for 24 hours, then 1 μM cisplatin or 200 μM temozolamide
[3] = mock-treated cells, 1 μM cisplatin or 200 μM temozolamide

For `COC(=O)c1cc(C)c(C)cc1-c1ccc(/C=C2\C(=O)N(c3ccc(C(=O)O)cc3)N=C2C)o1` [Compound 6m, 4-(4,5-dihydro-4-((5-(4,5-dimethyl-2-methylbenzoate)furan-2-yl)methylene)-3-methyl-5-oxapyrazol-1-yl)benzoic acid], the melting point was 254 to 256 °C and the “p300 HAT inhibition, result in words (analogs compared with C646)” value (p300 HAT) was “well tolerated”.
For `CC1=NN(c2ccc(C(=O)O)cc2)C(=O)/C1=C\c1ccc(-c2cc(C)c(C)cc2C#N)o1` [Compound 6o, 4-(4,5-dihydro-4-((5-(4,5-dimethyl-2-benzonitrile)furan-2-yl)methylene)-3-methyl-5-oxopyrazol-1-yl)-benzoic acid], the melting point was 295 to 297 °C and the “p300 HAT inhibition, result in words (analogs compared with C646)” value (p300 HAT) was “well tolerated”.
In the case of `CC1=NN(c2ccc(C(=O)O)cc2)C(=O)/C1=C\c1ccc(-c2ccccn2)o1` [Compound 6p, 4-(4,5-dihydro-3-methyl-5-oxy-4-((5-(pyridin-2-yl)furan-2-yl)methylene)pyrazol-1-yl)benzoic acid], the melting point is reported as 294 to 296 °C and the “p300 HAT inhibition, result in words (analogs compared with C646)” value (p300 HAT) is reported as “eliminated p300 inhibitory action”.
For `COC(=O)c1cc(C)c(C)cc1-c1ccc(/C=C2/CC(=O)N(c3ccc(C(=O)O)cc3)C2=O)o1` [Compound 6r, 2-{5-[1-(4-Carboxy-phenyl)-2,5-dioxo-pyrrolidin-3-ylidenemethyl]-furan-2-yl}-4,5-dimethyl-benzoic acid methyl ester], the melting point was 290 to 291 °C and the “p300 HAT inhibition, result in words (analogs compared with C646)” value (p300 HAT) was “retains potency for p300 inhibition”.
For `CC1=NN(c2ccc(C(=O)O)cc2)C(=O)C1Cc1ccc(-c2cc(C)c(C)cc2[N+](=O)[O-])o1` (stereo not shown) [Compound C37, 4-{4-[5-(4,5-Dimethyl-2-nitro-phenyl)-furan-2-ylmethyl]-3-methyl-5-oxo-4,5-dihydro-pyrazol-1-yl}-benzoic acid], the “p300 HAT inhibition, result in words (analogs compared with C646)” value (p300 HAT) was “does not detectably block p300 HAT activity; also recorded: did not detectably block p300 HAT activity; also recorded: devoid of p300 HAT inhibitory activity”, the “sensitivity of cell line to compound” value (WM983A melanoma cells) was “resistant” and the “acetylation of H3 or H4, with and without TSA” value ([1]; 25 μM, 3 hours) was “no effect”.
In the case of `CC(/C=C/C(=O)NO)=C\[C@@H](C)C(=O)c1ccc(N(C)C)cc1` [TSA, Trichostatin A, reference compound], the “acetylation of H3 and H4” value ([1]; TSA 33 nM, 30 minutes) is reported as “increased”.
With `N.N.[Cl][Pt][Cl]` [cisplatin] the “decrease in cell number” value (Mel-1 melanoma cells; [2]) was 28% and the “decrease in cell number” value (Mel-1 melanoma cells; [3]) was 35%.
In the case of `Cn1nnc2c(C(N)=O)ncn2c1=O` [temozolamide], the “decrease in cell number” value (Mel-1 melanoma cells; [2]) is reported as 31% and the “decrease in cell number” value (Mel-1 melanoma cells; [3]) is reported as 13%.
